Assay results reported in patent publication US9150571B2, “Crystalline forms of fused amino pyridines as HSP90 inhibitors” (Debiopharm International SA, priority 2011, dated 2015).
In brackets after ≈: the same amount, converted by molar mass. Each block holds one molecule with its values, some of them ahead of it.

Legend:
Type in all cases: physicochemical
[1] = Solubility, EP (European Pharmacopoeia) aliquot addition method; conditions: 25° C., EP method (kinetic solubility)
Protocol: All samples to be tested were passed through number 180 and number 125 sieves to ensure that they were finely powdered prior to testing, i.e. not less than 95% of sample mass passed through a […] sieve and not more than 40% passed through a 38 μm sieve.
The vial containing the test material and chosen solvent was shaken on a vortex mixer for 1 minute. The vial was placed in a water bath maintained at 25° C.±0.5° C. for 15 minutes. If particles were still remaining, the vial was shaken again for 1 minute using the vortex mixer and returned to the water bath for a further 15 minutes.
Approximately 100 mg of the test material was weighed into a vial and 0.1 mL of the chosen solvent was added. This was treated as described in the procedure above. […] After each addition of solvent the contents of the vial were treated as described in the dissolving procedure. […] After the dissolving procedure was complete, the solubility of the material was visually determined. […] Results obtained were reported.
The solubility of Compound 1 Form I was determined by two different methods. The EP (European Pharmacopoeia) method is an aliquot addition method which gives a rough assessment of kinetic solubility. The equilibrium method requires the suspension of solid for an extended period in the dissolving medium. […]

[2] = Equilibrium solubility in buffer, HPLC
Protocol: Approximately 25 mg of test substance was weighed into glass test tubes. The relevant volume of buffer solution (10 mL) was added to each vessel. The tests were performed in duplicate. The vessels were lightly sealed and agitated at 25°C. in a shaking thermostatted water bath protected from light. Sampling was performed after 24 hours and thereafter not less than 20 hours between sample time points. Sampling was performed by filtration of a portion of the test slurry through a 0.2 μm filter and dilution in appropriate media for HPLC analysis.
Equilibrium solubility was determined by HPLC by using:
[formula] where the Standard Purity was taken as 95%.
(§1) Buffer pH 7.0 samples were prepared by removing approximately 1 mL of the solution from the appropriate glass test tube and filtering into a HPLC vial using a PTFE 0.2 μm syringe filter. The concentration of the Compound 1 in the filtrate was determined by comparison with data of the standard sample (about 0.25 mg/g).
as §1, with “5.0” for “7.0”, “The filtered solution was diluted by a factor of 5 and approximately 1 mL of this solution was added into a HPLC vial for analysis. The” for “The”
At the end of the solubility study, the solids were isolated from the experimental slurries, filtered, dried and analyzed by XRPD in order to determine the physical form.
The solubility of Compound 1 Form I was determined by two different methods. The EP (European Pharmacopoeia) method is an aliquot addition method which gives a rough assessment of kinetic solubility. The equilibrium method requires the suspension of solid for an extended period in the dissolving medium. […] The EP method indicated solubility of Compound 1 Form I to be insoluble in water and be soluble in ethanol at 33-100 mg/ml.
The concentration of the samples was assessed by HPLC.

[3] = Intrinsic dissolution rate (IDR); conditions: pH 5.0 USP buffer, 37° C., 50 RPM; Form I from one non capped pellet
Protocol: For intrinsic dissolution studies (IDR) an isocratic HPLC method with a shorter run time (10 mins) was used due to the high number of sample analyses required (Table 2).
Distek 8 mm intrinsic dissolution apparatus was used for the study. The three fixed screws on the surface plate were inserted through the three holes on the die and fastened with the supplied washers and nuts. 100 mg of test material was placed in the die cavity. The punch was inserted into the cavity and compressed, with the aid of a bench top hydraulic press for 30 sec at 1 ton pressure. The surface plate was disconnected from the die to expose a compact pellet of 0.5 cm^2 surface area. The pellets were checked for any breaks and cracks on the surface. Only the pellets with flat even surface with no irregularities were used for the study. The Viton gasket was placed around the threaded shoulder of the die and a polypropylene cap was screwed on to the threads. The assembly was immersed, pellet side up, into the bottom of the dissolution vessel (flat bottom) containing dissolution medium at 37° C. The media is degassed under helium purge for 15 min prior to use.
• Dissolution media: pH 5.0 USP buffer • Vessel volume: 900 mL • Rotation speed: 50 RPM • Temperature: 37° C.±0.5° C. • Sampling time points: 30, 60, 90, 120 and 150 mins • Sample size: 1 mL • Sample analysis: By HPLC (conditions in Table 2 above)
Three samples of Form I, II, III and trihydrate were checked for IDR in USP pH 5.0 buffer. The samples were checked for any changes in their surface after dropping into the dissolution medium. […] The particles relax on contact with water during dissolution, causing capping of the surface. So IDR was calculated for Form I based on drug release from one non capped pellet. […] The samples were collected manually through a cannula fitted with 10 μm inline filters. The samples collected from dissolution run were analyzed by HPLC.
The average of all three runs was used to plot and calculate the IDR of samples, with the exception of Form I. The average dissolution profile for each Form is shown in FIG. 12.
After the dissolution test, the remaining portion of the pressed discs were dried in air and examined by XRPD.

[4] = Dynamic vapour sorption (DVS) hygroscopicity
Protocol: Dynamic Vapour Sorption (DVS) was performed using a Hiden Analytical Instruments IGAsorp Vapour Sorption Balance. Approximately 15 mg of sample was placed into a wire-mesh vapour sorption balance pan, loaded into the IGAsorp vapour sorption balance and held at 25° C.±0.1° C. The sample was subjected to a step profile from 0 to 90% RH at 10% increments, followed by desorption from […] to 0% RH at 10% increments. The equilibrium criterion was set to 99.5% step completion within a minimum of 60 minutes and a maximum of 10 hours for each increment. The weight change during the sorption cycle was monitored, allowing for the hygroscopic nature of the sample to be determined. The data collection interval was in seconds.
DVS analysis was used to investigate the hygroscopicity of Compound 1 Form I (FIG. 11). […] The overall weight gain up to 95% RH was 0.06% and weight gained up to 80% RH only 0.08%.
After completion of the cycle, the sample was removed from the instrument and no weight change was observed.

[5] = Interconversion experiments in ethyl acetate suspension (thermodynamic stability of forms), XRPD; conditions: for temperature range in which the form is the most stable polymorph (Form I/II transition): from interconversion experiments at 5, 10, 15, 21 & 60° C.
Protocol: Interconversion experiments were carried out using Forms I, II and III at 5° C., 10° C., 15° C., 21° C. and 60° C. in ethyl acetate. Suspensions of approximately equivalent amounts (about 75 mg) of each form in ethyl acetate (1.2 mL) were prepared and agitated at different temperatures. The slurries were stirred and sampled periodically (200 μL aliquot) after 30 mins and over the period of 10 days or until when near complete or complete conversion had occurred. The sampled aliquot was filtered, air dried and analyzed by XRPD.
In solvent mediated conversions, seeds of all Forms are present and there is no activation energy barrier to interconversion. This technique is used to identify the ‘true’ transition temperature and the thermodynamic relationship between the Forms. In order to determine the order of stability between each individual form interconversion experiments were performed using suspensions of pairs of each form in ethyl acetate at 5, 10 and 15° C. and suspensions of all Forms together at 21° C. and 60° C. The stirred suspensions of Forms I, II and III were sampled after 0.5 hr (t0), after 1, 2 and 3 days (t1-3) and 6 and 10 days if required.

[6] = Critical water activity for trihydrate formation in acetone/water; conditions: 21° C.
Protocol: Experiments to determine the critical water activity level with respect to trihydrate formation were performed in acetone/water. Different % v/v ratios of water in acetone were used for suspensions at 21° C. […] Using the Wilson VLE model, this equates to 0.38-0.49 or 0.35-0.44 using the UNIFAC model. This provides useful information for process chemists and formulators in later development.

solubility at 15 min ([1]; organic solvent or mixture, ethanol): 33 to 100 mg/mL (≈ 74.6 to 226 mM) | solubility in water (EP method) ([1]; water): insoluble | MEAN SOLUBILITY pH 5.1 ([2]; day 1, buffer pH 5.1, 25°C): 1.101 MG/G | MEAN SOLUBILITY pH 7.0 ([2]; day 1, buffer pH 7.0, 25°C): 0.074 MG/G | MEAN SOLUBILITY pH 5.1 ([2]; day 2, buffer pH 5.1, 25°C): 0.735 MG/G | MEAN SOLUBILITY pH 7.0 ([2]; day 2, buffer pH 7.0, 25°C): 0.043 MG/G | MEAN SOLUBILITY pH 5.1 ([2]; day 3, buffer pH 5.1, 25°C): 0.587 MG/G | MEAN SOLUBILITY pH 7.0 ([2]; day 3, buffer pH 7.0, 25°C): 0.031 MG/G | MEAN SOLUBILITY pH 5.1 ([2]; day 4, buffer pH 5.1, 25°C): 0.507 MG/G | MEAN SOLUBILITY pH 7.0 ([2]; day 4, buffer pH 7.0, 25°C): 0.025 MG/G | IDR [3]: 0.101 mg cm^−2 min^−1 | weight gained up to 80% RH ([4]; DVS, 25° C., up to 80% RH): 0.08% | overall weight gain up to 95% RH ([4]; DVS, 25° C., up to 95% RH): 0.06% | hygroscopicity classification (European Pharmacopoeia) ([4]; weight increase at 80% RH (25° C.)): non-hygroscopic | thermodynamically most stable form ([5]; 21° C., ethyl acetate suspension of Forms I, II and III): thermodynamically most stable form | thermodynamically most stable form ([5]; 60° C., ethyl acetate suspension of Forms I, II and III): thermodynamically most stable form | temperature range in which the form is the most stable polymorph (Form I/II transition) [5]: above 18±2 °C
SMILES: CN(C)c1cc2c(cc1Sc1nc3c(N)nccc3n1CCNCC(C)(C)C)OCO2 [Compound 1 Form I]

IDR [3]: 0.266 mg cm^−2 min^−1
SMILES: CN(C)c1cc2c(cc1Sc1nc3c(N)nccc3n1CCNCC(C)(C)C)OCO2 [Form III]

IDR [3]: 0.098 mg cm^−2 min^−1 | thermodynamically most stable form ([5]; 5° C., ethyl acetate suspension of pairs of forms): thermodynamically most stable form | thermodynamically most stable form ([5]; 10° C., ethyl acetate suspension of pairs of forms): thermodynamically most stable form | thermodynamically most stable form ([5]; 15° C., ethyl acetate suspension of pairs of forms): thermodynamically most stable form | temperature range in which the form is the most stable polymorph (Form I/II transition) [5]: lower than 18±2 °C
SMILES: CN(C)c1cc2c(cc1Sc1nc3c(N)nccc3n1CCNCC(C)(C)C)OCO2 [Form II]

IDR [3]: 0.184 mg cm^−2 min^−1 | critical water activity, UNIFAC model ([6]; UNIFAC model): 0.35-0.44 | critical water activity, Wilson VLE model ([6]; Wilson VLE model): 0.38-0.49
SMILES: CN(C)c1cc2c(cc1Sc1nc3c(N)nccc3n1CCNCC(C)(C)C)OCO2 [Trihydrate]
